Experimental data from PubChem BioAssay AID463229 (Broad Institute, 2010).

System: INS-1E rat beta cells, no cytokines, CellTiter-Glo ATP, 48 h
Test: ATP level change in INS-1E without cytokines, dose response, counter-screen for beta-cell apoptosis protection project, INS-1E rat cells, ATP luminescence, cherry pick (AID 463229)

SMILES	AC50
Cc1cc(C)cc(Oc2cc(NC(=O)c3cn(C)nc3C)cc([N+](=O)[O-])c2)c1	2.58 µM
CCCCCn1c(=O)c(C(=O)NCc2ccccc2Cl)c(O)c2ccccc21	6.84 µM
Cc1[nH]c2ccccc2c1CN1CCN(c2ccccn2)CC1	5.1 µM
Cc1ccc(Cl)cc1N1CCN(C(=O)CSc2nnc3n2C(C)(C)Cc2ccccc2-3)CC1	7.07 µM
COC(=O)c1cc(=O)n(CCc2ccccc2F)c(=Nc2ccc(F)c(Cl)c2)s1	11.1 µM
Oc1ccc(Br)cc1/C=N/Nc1ccccn1	4.28 µM
CN(C1=C(NC(=O)c2ccccc2)C(=O)c2ccccc2C1=O)C1CCS(=O)(=O)C1 (centres undefined)	4.84 µM
CC1(C)N=C(N)N=C(N)N1c1ccc(OCCCOc2ccccc2)c(Cl)c1	0.913 µM
Cc1cc(Nc2cccc(F)c2)nc(NCc2ccccc2)n1	5.15 µM
CCC(=NNC(=O)c1ccc2c(c1)nc(C)n2CC)c1cc(F)ccc1O	9.84 µM
Oc1cccc(C(Nc2nccs2)c2ccc3cccnc3c2O)c1 (centres undefined)	2.54 µM
CCCCC(CC)CN=C(N)NC(N)=NCCCCCCN=C(N)NC(N)=NCC(CC)CCCC (centres undefined)	2.35 µM
CCCC[n+]1ccn(C2=C([O-])c3ccccc3C(=O)/C2=N\S(=O)(=O)c2ccc(Br)cc2)c1	15.2 µM
Cc1ccc2nc(NC(=O)/C=C/c3ccc4c(c3)OCO4)sc2c1	7.35 µM
COc1nnc(-c2ccc(N3CCCCC3)c(NC(=O)C3CCCCC3)c2)c2ccccc12	5.25 µM
COc1ccc(N/N=C/c2c(C(=O)O)ccc3ccccc23)cc1	4.35 µM
Cc1ccc(C)c(-c2csc(NC(=O)C3=COCCO3)n2)c1	7.67 µM
O=[N+]([O-])c1ccc(/C=N/n2cnc3ccccc32)s1	4.04 µM
CC[C@@H](C(=O)[C@@H](C)[C@@H](O)[C@H](C)CCc1ccc(C)c(O)c1C(=O)O)[C@H]1O[C@](CC)([C@H]2CC[C@](O)(CC)[C@H](C)O2)C[C@@H]1C	2.49 µM
CCOC(=O)N1CCN(S(=O)(=O)c2ccc(C(=O)NNc3nc4c(C)cc(C)cc4s3)cc2)CC1	11.3 µM
Cn1c(=O)[nH]c(=O)c2c1nc(N1CCN(C(c3ccccc3)c3ccccc3)CC1)n2CCO	10.8 µM
c1ccc(-c2nc3nonc3nc2-c2ccccc2)cc1	11.1 µM
Cc1ccc(C)c(N2CCN(C(=O)CCCOc3cc(=O)n(C)c4ccccc34)CC2)c1	2.7 µM
Oc1ccc(Nc2nc(N3CCCC3)c3ccccc3n2)cc1	18.9 µM
CC(C)(C)c1ccc(CSc2cnn(C(C)(C)C)c(=O)c2Cl)cc1	< 0.195 µM
CN1/C(=C\C(=O)CN2C(=O)NC3(CCCCCC3)C2=O)C(C)(C)c2ccccc21	7.99 µM

SMILES	AC50
COc1ccccc1NC(=O)c1nc(S(=O)(=O)Cc2ccccc2)ncc1Cl	8.64 µM
O=C(Nc1cccc(Cl)c1)Nc1nnc(CSCCOc2ccc(Cl)cc2)s1	5.39 µM
CCOC(=O)C1CCN(Cc2ccc(O)c3ncccc23)CC1	12.5 µM
COc1ccc(-[n+]2c(C)cc(/C=C3\Sc4ccccc4N3C)cc2C)cc1	< 0.195 µM
COc1ccc(NC(=O)c2c(Nc3ccccc3)sc(C(=O)c3ccc(F)cc3)c2N)cc1	2.91 µM
Nc1nc(-c2ccccn2)nc(N)c1Cc1c(F)cccc1Cl	8.86 µM
CC(Oc1ccc(Cl)cc1Cl)c1nc(-c2ccc(NC(=O)c3cccnc3)cc2)no1 (centres undefined)	0.906 µM
COc1ccc(C(=O)N2CCN(c3ccc([N+](=O)[O-])c(NCCc4ccc(OC)c(OC)c4)c3)CC2)cc1	3.46 µM
Oc1ccc(Nc2nc(-c3ccc4ccccc4c3)cs2)cc1	7.98 µM
COc1ccc(-n2cc(-c3ccc(OC(F)F)cc3)[n+]3c2CCCCC3)cc1	2.07 µM
Cc1cc(C)c2nc(NNC(=O)c3ccc(S(=O)(=O)N4CC(C)CC(C)C4)cc3)sc2c1 (centres undefined)	4.75 µM
CCN1/C(=C/C=C/c2oc3ccc(-c4ccccc4)cc3[n+]2CC)Oc2ccc(-c3ccccc3)cc21	0.78 µM
CC(C)Nc1ccc(Nc2ccccc2)cc1	7.5 µM
Cc1nc(Nc2ccc(Cl)c(Cl)c2)sc1C(=O)Nc1ccccc1	9.24 µM
COC(=O)c1ccccc1NC1=C/C(=N\S(=O)(=O)c2cccs2)c2ccccc2C1=O	8.33 µM
CCn1nc(C)c(CNC(=O)c2ccc(OC3CCN(Cc4ccccn4)CC3)cc2)c1C	6.9 µM
CC(C)=CCc1cc2c(=O)c3c(O)c4c(cc3oc2c(O)c1O)OC(C)C4(C)C (centres undefined)	7.43 µM
CCCC(=O)NC(c1ccc(OC)cc1)c1ccc2cccnc2c1O (centres undefined)	2.4 µM
COc1cc(NC(=O)c2[nH]cnc2C(N)=O)cc(C(=O)Nc2cccc(C(F)(F)F)c2)c1	5.21 µM
COc1ccc(/C=C/C(=O)c2ccc([N+](=O)[O-])o2)cc1OC	4.93 µM
c1ccc(-[n+]2nc(Nc3cccc4ccccc34)sc2-c2c3ccccc3cc3ccccc23)cc1	3.86 µM
O=C(N/N=C/c1sc2ccccc2c1O)c1ccccc1	3.92 µM
C=C1C(=O)O[C@@H]2C[C@@H](C)[C@@H]3C=CC(=O)[C@@]3(C)[C@@H](OC(C)=O)[C@H]12	2.21 µM
Cc1cc(O)c2c(c1)C(=O)C13C(=C2O)C(=O)[C@H]2[C@@H](O)[C@@H]1[C@H]1[C@H](O)[C@@H]3C(=O)C3=C(O)c4c(O)cc(C)cc4C(=O)C312 (some centres undefined)	4.68 µM
CC(C)(C)C1C/C(=C/c2ccccn2)C(=O)/C(=C/c2ccccn2)C1 (centres undefined)	0.672 µM
C#CCOCCOCCOCCNc1nc(N2CCN(C(=O)CCCCCCCCCCNC(=O)[C@H](CCCCN)n3cc(CCO)nn3)CC2)nc(N2CCN(C(=O)CCCCCCCCCCNC(=O)[C@H](CCCCN)n3cc(C[C@@H](C)CC)nn3)CC2)n1	10.6 µM

SMILES	AC50
CCN(CC)c1ccc(/C=N/NC(=O)CNC(=O)C2COc3ccccc3O2)c(O)c1 (centres undefined)	5.41 µM
CCN(CC)CCn1nc2c3c(cccc3c1=O)-c1ccccc1-2	6.74 µM
CCOC(=O)N1CCN(Cc2cc(Cl)c3cccnc3c2O)CC1	13.2 µM
CCCC(C)C(=O)Nc1nc(C)c(-c2csc(Nc3ccc(Cl)cc3)n2)s1 (centres undefined)	3.71 µM
Nc1ccc(Br)cc1-c1nc2ccccc2[nH]c1=O	1.32 µM
N#CCC(=O)N/N=C/c1cc(-c2ccccc2)n(-c2ccc(Cl)cc2)c1-c1ccccc1	2.29 µM
Cc1cccnc1CN1CCN(C(=O)c2cc(COc3ccc4ncccc4c3)on2)CC1	5.44 µM
CN1/C(=C\C=N\NC(=O)c2ccc(O)cc2)C(C)(C)c2ccccc21	7.5 µM
O=C1C(C2=NC(c3ccccn3)C3C(=O)N(c4ccc(OC(F)(F)F)cc4)C(=O)C23)=C(O)c2ccccc21 (centres undefined)	5.94 µM
CC(C)(C)n1nnnc1C(c1ccc(F)cc1)N(Cc1ccc(F)cc1)Cc1ccco1 (centres undefined)	9.25 µM
CN(C)S(=O)(=O)c1cccc(NC(=S)N/N=C/c2cc(Br)ccc2O)c1	2.72 µM
Oc1c(CN2CCN(c3ccc(F)cc3)CC2)cc(Cl)c2cccnc12	4.27 µM
O=C(c1ccco1)N1N=C(c2ccc(Br)cc2)CC1c1ccco1 (centres undefined)	24.2 µM
Cc1sc2ncnc(N/N=C/c3ccccc3O)c2c1C	3.03 µM
COc1cc(C(=O)Oc2ccccc2/C=N/NC(=O)c2ccc(C)c(Cl)c2)cc(OC)c1OC	12.6 µM
CCOc1cccc(/C=N/NC(=O)c2ccc3c(c2)OCCO3)c1O	8.21 µM
c1ccc(CNc2c3ccccc3nc3ccccc23)cc1	11.5 µM
CCOC(=O)c1cnc(-n2nc(C)cc2C)nc1NC1CCCC1	2.38 µM
COc1ccc(Cc2nnc(N/N=C/c3ccccc3O)[nH]c2=O)cc1OC	4.32 µM
Cn1nccc1C(=O)NC1CCCc2c1cnn2-c1ccc(C(C)(C)C)cc1 (centres undefined)	2.11 µM
CC(C)COCc1ccc(O)c2ncccc12	8.01 µM
CCOC(=O)C1CCCN(S(=O)(=O)c2ccc(S(=O)(=O)N(CC)CC)cc2)C1 (centres undefined)	3.8 µM
CN(C)CCCNc1c2ccccc2nc2ccccc12	16.2 µM
Cc1cc(N2CCN(c3nc4ccccc4s3)CC2)n2ncnc2n1	7.32 µM
CNC[C@@H](Cc1ccccc1)NC[C@@H](CC1CCCCC1)NCCCc1ccccc1	7.41 µM
Cn1c(SCC(=O)N/N=C/c2ccc([N+](=O)[O-])s2)nnc1-c1ccccc1	5.11 µM

SMILES	AC50
CCCCCc1ccc(OCCCC[n+]2ccccc2)c(CCCCC)c1	3.3 µM
CCOc1ccc(S(=O)(=O)N2CCCCC2)cc1NC(=O)CN1CCCC1c1cccs1 (centres undefined)	5.24 µM
CCC1=NN(C(=O)c2cccc(Br)c2)C(O)(c2ccc(Br)cc2)C1 (centres undefined)	9.79 µM
O=C(NCc1cccnc1)c1ccc(NC(=O)c2ccc([N+](=O)[O-])cc2)cc1	0.215 µM
CCOC(=O)COc1ccc2ccccc2c1/C=C/[N+](=O)[O-]	10.6 µM
Nc1c(N(CCC2=CCCCC2)C(=O)COc2ccc(F)cc2)c(=O)[nH]c(=O)n1Cc1ccccc1	4.49 µM
CCOC(=O)/C(=C\c1ccc(OC(F)F)cc1)C1=Nn2c(nnc2-c2ccc(Cl)cc2)SC1	5.5 µM
COc1cccc(/C=N/Nc2ncnc3scc(-c4ccccc4)c23)c1O	2.02 µM
CCCCCCSc1ccc([C@H]2N[C@@](Cc3ccccc3)(C(=O)OC)[C@H]3C(=O)N(C)C(=O)[C@@H]23)cc1	14.6 µM
CC1=CC2/C=C(\C)CCC(O)C(O)/C=C/C(=O)C23C(=O)NC(CC(C)C)C3C1C (centres undefined)	7.48 µM
CN1/C(=C\C(=S)Nc2ccccc2)C(C)(C)c2ccccc21	10.1 µM
Brc1ccc(N/N=C(/N=Nc2nn[nH]n2)c2ccccc2)cc1	3.51 µM
CCC1=NN(C(=O)c2ccccc2O)C(O)(c2ccccc2)C1 (centres undefined)	15.6 µM
Oc1[nH]c2ccc(Br)cc2c1N=NC(=S)N1CCOCC1	2.39 µM
CN1CCN(c2ccc(CNS(=O)(=O)Cc3cccc(C(F)(F)F)c3)cc2)CC1	8.93 µM
CN1CCN(c2ccc([N+](=O)[O-])c3no[n+]([O-])c23)CC1	1.9 µM
CCn1c(/C=C/c2ccc([N+](=O)[O-])o2)nc2ccccc2c1=O	4.08 µM
CCN(CC)c1ccc(/C=N/NC(=O)c2cnccn2)c(O)c1	2.01 µM
Cc1c(/C=N/Nc2nc3ccccc3[nH]2)c2ccccc2n1C	6.36 µM
COc1ccc(Cc2nc(-c3ccc(NC(=O)c4cccnc4)cc3)no2)cc1	0.286 µM
O=C(Nc1ccc(OC(F)F)c(Cl)c1)C(c1ccccc1)c1ccccc1	13 µM
CC1CCc2c(sc3nc(C4CC4)nc(N4CCN(C(=O)c5ccco5)CC4)c23)C1 (centres undefined)	3.01 µM
CCCC(=O)NC(c1ccc(C)cc1)c1ccc2cccnc2c1O (centres undefined)	1.99 µM
Cc1ccccc1OCC(O)CNC1CCC(NCC(O)COc2ccccc2C)CC1 (centres undefined)	6.66 µM
CCCCNc1c(-c2ccc(-c3cccc(Cl)c3)cc2)nc2ccccn12	5.83 µM
Cc1sc2ncnc(N3CCN(S(=O)(=O)c4ccc(C(C)(C)C)cc4)CC3)c2c1C	4.17 µM
